# From patent US20090118194A1, “Measurement of melanocortin peptides and uses thereof” (Auckland UniServices Limited, priority 2002, published 2009)
# “Also recorded” adds a separate entry of the source.
# Legend:
# 3T3 L1 adipocytes = assay: Leptin production in differentiated 3T3 L1 adipocytes (peptide stimulation assay); format: cell-based, murine; details: for mean leptin level: one assay; for Leptin Response, Mean: 4 hours, 2 assays combined
# Protocol: • 2.1 The objective of this study was to determine the effects of a-MSH and desacetyl a-MSH on leptin and triglyceride production in murine 3T3 L1 adipocytes. • 2.2 Pre-adipocytes were seeded in 6-well plates and 2 days post confluence (Day 2) were differentiated with […] indomethacin+5 ug/mL insulin (described in previous documents). • 2.3 On Day 13 adipocytes were stimulated with 4 doses each of a-MSH and desacetyl a-MSH (or no peptide added) for 4 hours. • 2.4 Medium was removed from the wells and leptin and triglyceride levels measured. • 2.5 Intracytoplasmic lipid accumulation was measured by staining with Oil red O.
# • 4.1 Medium=a-MEM+0.5% BSA (100 mL a-MEM+0.5 g BSA) • 4.2 Doses of a-MSH and da-MSH (stocks in −80° C. freezer=1 ug/ul), using MW of a-MSH. • 1 M=1665 g/L=1665 mg/mL • 1 mM=1.665 mg/mL • 1 uM=1.665 ug/mL • 1.665 ug/mL=3.3 ug/2 mL in each well • 1/10 dilution of 1 ug/ul (stock)=0.1 ug/ul. 33 ul=3.3 ug. • Prepare 1/10 dilution of freezer stock (1 ug/ul) to make 0.1 ug/ul, using a-MEM+0.5% BSA as diluent. • Make 3 serial dilutions of 1/10 to add 33 ul to each well in 6-well plate. • Doses are in triplicate wells, so require 3×33=99 ul for each dose.
# • 5.1 Assay is performed on Day 14 after initiation of cell differentiation. On day prior to stimulation assay, replace growth medium+insulin with medium prepared in 4.1 (a-MEM+0.5% BSA) and return plates to incubator. • 5.2 On Day of assay prepare peptide solutions as in 4.2 and IBMX as in 4.3. • 5.3 Replace medium with the same medium supplemented with 1 mM IBMX (as in 4.3) and allow cells to equilibrate in incubator for 10 minutes. • 5.4 Add increasing concentrations of peptides (or none), 33 ul per well, swirl gently to mix, and place plates in incubator for 4 hours. • 5.5 At the end of the incubation remove media from wells and store triplicate aliquots in −20° C. freezer for measurement of leptin and triglycerides. • 5.6 Stain adipocytes in wells with Oil Red O as in “Oil Red O Staining of Adipocyte” document. • 5.7 After eluting the stain, remove cells from wells as in 6.0 for measuring total protein.
# Leptin Assays Quantikine M kit (R & D Systems Inc, UK # MOB00 Abingdon, Oxon) and DSL kit (DSL #10-24100, Australia PTY Ltd, NSW, Australia) were used. […] The Quantikine M kit is preferred as it is more sensitive and precise.
# primary rat osteoblasts = assay: Primary rat osteoblast proliferation assay ([3H]thymidine incorporation, cell number); format: cell-based
# From the text: Primary rat osteoblasts were isolated from 20 day fetal rat calvariae. (The use of animals for these studies was approved by the Auckland Animal Ethics Committee.) Calvariae were excised and the frontal and parietal bones, free of suture and periosteal tissue, were collected and sequentially digested using collagenase as previously described (Cornish J, Callon K E, Lin C Q X, Xiao C L, Mulvey T B, Cooper G J S, Reid I R Trifluoroacetate, a contaminant in puritied proteins, inhibits proliferation of osteoblasts and chondrocytes. Amer J Physiol Endocrinol Metab 277: E779-E783, 1999). Primary rat osteoblasts were grown in DMEM supplemented with 10% FCS, 50 U/ml penicillin and 50 μg/ml streptomycin. After 48 hour, the medium was changed to MEM. Confluence was reached within 5-6 days, at which time the cells were subcultured into 10 cm culture plates for RNA preparation or 24 well plates for proliferation assays.
# Primary rat osteoblasts were subcultured into 24 well plates at a density of 5×10^4 cells/ml/well in MEM, 5% FCS for 24 hours. Cells were growth arrested in MEM, 0.1% bovine serum albumin (BSA) for 24 hour and then fresh media and experimental compounds were added for a further 24 hours. Cells were pulsed with [^3H]thymidine (0.5 μCi/well) 2 hours before the end of the experimental incubation. The experiment was terminated and both cell numbers and thymidine incorporation were assessed. Cell numbers were analysed by detaching cells from the wells by exposure to trypsin/EDTA (0.05%/0.53 mM) for approximately 5 minutes at 37° C. Counting was performed in a hemocytometer chamber. Results are expressed per well. [^3H]Thymidine incorporation was analysed by washing the cells in MEM followed by the addition of 10% trichloroacetic acid. The precipitate was washed twice with ethnol:ether (3:1) and the wells desiccated at room temperature. The residue was dissolved in 2M KOH at 55° C. for 30 minutes, neutralized with 1M HCl, and an aliquot counted for radioactivity. Results are expressed as dpm per well. Each experiment was performed at least three times using experimental groups consisting of at least six wells.
# Data are presented as mean±SEM. The significance of differences between groups was determined using Student's t tests for unpaired data and a 5% significance level. The comparisons to be made in each experiment were specified a priori, so no adjustment for multiple comparisons was necessary. Where several experiments have been shown in one figure, the data are expressed as the ratio of results in treatment groups to those in the control group and the ‘P’ values shown were calculated using the data from the individual experiments, before the data were pooled.
sequence,measurement,setting,value
"SYSMEHFRWGKPV [desacetyl-α-MSH, non-acetylated form of α-MSH, obtained from Bachem]",effect on leptin production,3T3 L1 adipocytes; 1 nM single peptide,appears to reduce leptin production
same,mean leptin level,3T3 L1 adipocytes; 1 nM single peptide,480.4 pg/mL
same,"Leptin Response, Mean",3T3 L1 adipocytes; 1 nM,95.4 % of control
same,"Leptin Response, Mean",3T3 L1 adipocytes; 10 nM,96.3 % of control
same,mean leptin level,3T3 L1 adipocytes; 100 nM single peptide,528.0 pg/mL
same,"Leptin Response, Mean",3T3 L1 adipocytes; 100 nM,97.7 % of control
same,"Leptin Response, Mean",3T3 L1 adipocytes; 1000 nM,109.4 % of control
same,antagonism of α-MSH stimulated [3H] thymidine uptake,"primary rat osteoblasts; 10^−7 M against α-MSH 10^−8 M and 10^−7 M, growth arrested primary rat osteoblasts",inhibited two doses of α-MSH (10^−8 M and 10^−7 M) from stimulating [^3H] thymidine uptake; also recorded: antagonise α-MSH stimulated stimulation of thymidine incorporation
same,osteoblast proliferation,"primary rat osteoblasts; 10^−7 M and 10^−8 M, alone",no significant effect on osteoblast proliferation in two out of three experiments
same,thymidine incorporation or cell numbers (proliferation),"primary rat osteoblasts; growth arrested primary rat osteoblasts, 10^−7 M, alone",did not stimulate thymidine incorporation or cells numbers
